This note sets out measurements from ChEMBL document CHEMBL5241112, “Insights into the recent progress in the medicinal chemistry of pyranopyrimidine analogs” (RSC Med Chem, 2022).

The structures appear in SMILES notation. In brackets after ≈: the same amount, converted by molar mass.

Experiment [1] has as its system Staphylococcus aureus. Briefly: Antibacterial activity against Staphylococcus aureus assessed as diameter of inhibition zone at 100 ug/ml by disc diffusion method. The class given is functional. The note with it: read-out: DIZ.
Experiment [2] concerns Candida albicans. As to the kind of experiment: Antifungal activity against Candida albicans assessed as diameter of inhibition zone at 100 ug/ml by agar disc diffusion method. The class given is functional. The note with it: read-out: DIZ. A general note: In agar diffusion tests the substance spreads into inoculated agar from a disc or well.
Experiment [3] relates to Escherichia coli. Briefly: Antibacterial activity against Escherichia coli assessed as diameter of inhibition zone at 100 ug/ml by disc diffusion method. It counts as functional. To be noted: read-out: DIZ.
The target in a further experiment is Alpha-glucosidase (Saccharomyces cerevisiae S288c, UniProt P53341+P38158+P07265). As to the kind of experiment: Inhibition of Saccharomyces cerevisiae alpha-glucosidase preincubated for 5 mins followed by PNP-GLUC substrate addition and measured after 20 mins by spectroscopic analysis. The class given is protein assay.
The target of a further experiment is Albumin (Bos taurus, UniProt P02769). As to the kind of experiment: […] bovine serum albumin denaturation incubated for 23 mins by UV-Visible spectrophotometry.
The test system of experiment [4] is Pseudomonas aeruginosa. Briefly: Antibacterial activity against Pseudomonas aeruginosa MTCC 741 assessed as diameter of inhibition zone at 0.1 mg/ml incubated for 24 hrs by agar well diffusion method. It counts as functional. The note with it: read-out: DIZ.
Experiment [5] is described as follows: Inhibition of porcine pancreatic alpha-amylase preincubated for 10 mins followed by substrate starch addition and measured after 10 mins by colorimetric analysis. Set-up: species or system Sus scrofa.
The test system of experiment [6] is Escherichia coli. As to the kind of experiment: Antibacterial activity against Escherichia coli MTCC 723 assessed as diameter of inhibition zone at 0.1 mg/ml incubated for 24 hrs by agar well diffusion method. The class given is functional. The note with it: read-out: DIZ.
The subject of experiment [7] is Staphylococcus aureus. As to the kind of experiment: Antibacterial activity against Staphylococcus aureus NCIM 2654 assessed as diameter of inhibition zone incubated for 24 hrs by agar well diffusion method. The class given is functional.
The test system of experiment [8] is Escherichia coli. As to the kind of experiment: Antibacterial activity against Escherichia coli NCIM 2066 assessed as diameter of inhibition zone incubated for 24 hrs by agar well diffusion method. The class given is functional.
For experiment [9], the system named is Candida albicans. As to the kind of experiment: Antifungal activity against Candida albicans assessed as diameter of inhibition zone incubated for 48 hrs by agar well diffusion method. It counts as functional.
The test system of experiment [10] is Aspergillus flavus. As to the kind of experiment: Antifungal activity against Aspergillus flavus assessed as diameter of inhibition zone at 100 ug/ml by agar disc diffusion method. It counts as functional. To be noted: read-out: DIZ.
A short description of experiment [11]: Antioxidant activity assessed as DPPH radical scavenging activity at 12 ug incubated for 30 mins by spectrophotometric analysis. The class given is functional. To be noted: dose 12.0 µg.
A short description of experiment [12]: Antioxidant activity assessed as DPPH radical scavenging activity at 75 ug/ml incubated for 30 mins by spectrophotometric analysis. It counts as functional. The note with it: dose 75.0 µg/ml.
A short description of experiment [13]: Antioxidant activity assessed as DPPH radical scavenging activity at 100 ug/ml incubated for 30 mins by spectrophotometric analysis. It counts as functional. To be noted: dose 100.0 µg/ml. Background: Loss of DPPH colour is used to gauge radical scavenging.
Experiment [14] has as its system Staphylococcus aureus. As to the kind of experiment: Antibacterial activity against Staphylococcus aureus assessed as inhibition of bacterial growth. It counts as functional.
The test system of experiment [15] is Staphylococcus aureus. Briefly: Antibacterial activity against Staphylococcus aureus assessed as bacterial growth inhibition by broth microdilution method. The class given is functional. (In general: Dilution methods test growth across graded concentrations, often in twofold steps.)
In experiment [16] the test system is Mycobacterium tuberculosis. As to the kind of experiment: Antitubercular activity against Mycobacterium tuberculosis H37Rv assessed as bacterial growth inhibition incubated for 24 hrs by MABA assay. It counts as functional.
Experiment [17] has as its system Escherichia coli. As to the kind of experiment: Antibacterial activity against Escherichia coli assessed as bacterial growth inhibition by broth microdilution method. The class given is functional.
Experiment [18] deals with Salmonella typhimurium. Briefly: Antibacterial activity against Salmonella typhimurium MTCC 98 assessed as bacterial growth inhibition by broth microdilution method. It counts as functional, Salmonella enterica subsp. enterica serovar Typhimurium. To be noted: Salmonella enterica.
Experiment [19] relates to Pseudomonas aeruginosa. Briefly: Antibacterial activity against Pseudomonas aeruginosa assessed as bacterial growth inhibition by broth microdilution method. The class given is functional.
Experiment [20] relates to Klebsiella pneumoniae. As to the kind of experiment: Antibacterial activity against Klebsiella pneumoniae assessed as bacterial growth inhibition by broth microdilution method. The class given is functional.
The test system of a further experiment is Aspergillus fumigatus. Briefly: microbe, parasite or virus in culture. The class given is functional. To be noted: ATCC204305, dose 50 mg/ml, time 24 hrs, read-out: DIZ.
Experiment [21] relates to Klebsiella pneumoniae. Briefly: Antibacterial activity against Klebsiella pneumoniae MGH 78578 assessed as diameter of inhibition zone at 50 mg/ml incubated for 24 hrs by paper disk diffusion method. It counts as functional. The note with it: read-out: DIZ.
The test system of experiment [22] is Escherichia coli. As to the kind of experiment: Antibacterial activity against Escherichia coli ATCC 25922 assessed as diameter of inhibition zone at 50 mg/ml incubated for 24 hrs by paper disk diffusion method. It counts as functional. The note with it: read-out: DIZ.
In a further experiment the test system is HCT-116. Briefly: Anticancer activity against human HCT-116 cells assessed as reduction in cell viability incubated for 96 hrs by MTT assay. The class given is functional, cell-based. To be noted: HCT-116, 96 h.
In experiment [23] the test system is Aspergillus flavus. Briefly: Antifungal activity against Aspergillus flavus assessed as inhibition of fungal growth. The class given is functional.
Experiment [24] deals with Salmonella typhimurium. As to the kind of experiment: Antimicrobial activity against Salmonella typhimurium ATCC 19430 assessed as diameter of inhibition zone at 20 mg/ml incubated for 24 hrs by disk diffusion method. It counts as functional, Salmonella enterica subsp. enterica serovar Typhimurium. To be noted: Salmonella enterica, read-out: DIZ.
Experiment [25] concerns Candida albicans. Briefly: Antifungal activity against Candida albicans assessed as inhibition of fungal growth. It counts as functional.
In the next experiment the test system is Aspergillus niger. Briefly: Antifungal activity against Aspergillus niger assessed as inhibition of fungal growth. The class given is functional.
Experiment [26] relates to Klebsiella pneumoniae. As to the kind of experiment: Antimicrobial activity against Klebsiella pneumoniae ATCC 15380 assessed as diameter of inhibition zone at 20 mg/ml incubated for 24 hrs by disk diffusion method. It counts as functional. To be noted: read-out: DIZ.
The test system of experiment [27] is Escherichia coli. Briefly: Antimicrobial activity against Escherichia coli ATCC 25922 assessed as diameter of inhibition zone at 20 mg/ml incubated for 24 hrs by disk diffusion method. The class given is functional. The note with it: read-out: DIZ.
For another experiment, the system named is Penicillium chrysogenum. As to the kind of experiment: Antifungal activity against Penicillium chrysogenum assessed as diameter of inhibition zone by disc diffusion method. The class given is functional.
For the next experiment, the system named is Serratia marcescens. As to the kind of experiment: Antibacterial activity against Serratia marcescens assessed as diameter of inhibition zone by disc diffusion method. It counts as functional.
In the next experiment the test system is Aspergillus ochraceus. Briefly: Antifungal activity against Aspergillus ochraceus assessed as diameter of inhibition zone by disc diffusion method. The class given is functional.

In the case of `CCOC(=O)C1=C(C)Oc2nc(C)n(Cc3cn(-c4cccc([N+](=O)[O-])c4)nn3)c(=O)c2C1c1ccc([N+](=O)[O-])cc1` (centres undefined), the zone of inhibition at 100 µg/mL with Staphylococcus aureus [1] turned out to be 16 mm; in the experiment on Candida albicans [2], 16.5 mm; in the experiment with Escherichia coli [3], 15 mm.
For orientation: IC50 means the concentration at which inhibition is half-maximal. Regarding `O=C(C1=C(c2ccccc2O)Oc2[nH]c(=S)[nH]c(=O)c2C1c1ccc(Cl)cc1)N1CCCCC1` (centres undefined), the IC50 against Alpha-glucosidase is 4.021 mM; at Albumin, 26.7 µM; in experiment [5] it was 9.9 µM. For the same compound, the zone of inhibition at 100 µg/mL in the experiment with Pseudomonas aeruginosa [4] was 13.1 mm; in the experiment with Escherichia coli [6], 14.1 mm.
Take `COc1ccc(C2c3c(C)n[nH]c3Oc3[nH]c(=O)[nH]c(=O)c32)cc1` (centres undefined): the “diameter of the inhibition zone (DIZ)” value was 27 mm in the experiment on Staphylococcus aureus [7], 19 mm in the experiment on Escherichia coli [8] and 27 mm with Candida albicans [9].
As to `CC(=O)N1CCN(c2ccc(OCC3COC(Cn4ccnc4)(c4ccc(Cl)cc4Cl)O3)cc2)CC1` (centres undefined) [KETOCONAZOLE], the zone of inhibition at 100 µg/mL worked out at 20.5 mm in the experiment on Candida albicans [2] and 18.5 mm in the experiment on Aspergillus flavus [10].
`Cc1n[nH]c2c1C(c1ccccc1)c1c([nH]c(=O)[nH]c1=O)O2` (centres undefined): the “diameter of the inhibition zone (DIZ)” value with Staphylococcus aureus [7] amounted to 18 mm; in the experiment with Escherichia coli [8], 14 mm; with Candida albicans [9], 23 mm. Besides, the Activity in experiment [11] was 65.8%.
As to `O=C1O[C@H]([C@@H](O)CO)C(O)=C1O`, the Activity came out at 89.4% in experiment [12], 97.6% in experiment [13] and 94.6% in experiment [11].
A word on the MIC: it is the smallest concentration in the dilution series that meets the test's criterion for growth inhibition. For `O=C(O)c1cn(C2CC2)c2cc(N3CCNCC3)c(F)cc2c1=O` [CIPROFLOXACIN], the minimal inhibitory concentration (MIC) in the experiment on Staphylococcus aureus [14] came to 50 µg/mL (≈ 151 µM); in the experiment on Staphylococcus aureus [15], 3.12 µg/mL (≈ 9.42 µM); in experiment [16] it was 3.12 µg/mL (≈ 9.43 µM); in the experiment with Escherichia coli [17], 3.12 µg/mL (≈ 9.42 µM); in the experiment with Salmonella typhimurium [18], 25 µg/mL (≈ 75.4 µM); in the experiment with Pseudomonas aeruginosa [19] it was 3.12 µg/mL (≈ 9.42 µM). Besides, the minimum inhibitory concentration (MIC) in the experiment on Klebsiella pneumoniae [20] was 3.12 µg/mL (≈ 9.42 µM).
For the compound `Nc1ncnc2c1C(c1ccc(Cl)cc1)C=C(c1cc3ccccc3oc1=O)O2` (centres undefined), the results for the zone of inhibition at 50000 µg/mL with Aspergillus fumigatus, in the experiment on Klebsiella pneumoniae [21] and in the experiment with Escherichia coli [22] were 10 mm, 14 mm and 10 mm, respectively.
For `N#CC1=C(N)Oc2[nH]c(=O)[nH]c(=O)c2C1c1cccs1` (centres undefined), the IC50 in the experiment on HCT-116 came to 2760 nM. For the same compound, the MIC is 150 µg/mL (≈ 520 µM) in the experiment on Aspergillus flavus [23], 125 µg/mL (≈ 434 µM) in the experiment with Candida albicans [25] and 162 µg/mL (≈ 564 µM) with Aspergillus niger. The results for the zone of inhibition at 20000 µg/mL with Salmonella typhimurium [24], in the experiment on Klebsiella pneumoniae [26] and with Escherichia coli [27] were 20 mm, 16 mm and 14 mm, respectively.
For the compound `Cc1ccc(C2c3c(C)n[nH]c3Oc3[nH]c(=O)[nH]c(=O)c32)cc1` (centres undefined), the “diameter of the inhibition zone (DIZ)” value with Staphylococcus aureus [7] is 25 mm; with Escherichia coli [8] it was 23 mm; in the experiment with Candida albicans [9] it was 27 mm. The Activity in [11] is 71.9%.
Turning to `Cc1nc2c3c(ncn2n1)Oc1ccc2cc(Br)ccc2c1C3`, the “diameter of the inhibition zone (DIZ)” value in the experiment on Penicillium chrysogenum turned out to be 13 mm; in the experiment with Serratia marcescens, 23 mm; in the experiment with Aspergillus ochraceus, 17 mm.
